Test results taken from ChEMBL document CHEMBL1201862, “PubChem BioAssay data set” (2004).
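How tested: cells in 96-well plates exposed to compound for 48 hours at five concentrations. GI50 marks 50% less growth.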 The source made the active and inactive calls. No stated cut-off is given here; in the data, active = GI50 up to about 1.1 µM and inactive = higher.

Experiments:
Assay in all cases: NCI-60 cell line screen, 48 h
M14 = system: M14
SF-539 = system: SF-539
SK-MEL-5 = system: SK-MEL-5
UACC-257 = system: UACC-257
NCI-H23 = system: NCI-H23
SW-620 = system: SW-620
DLD-1 = system: DLD-1
UO-31 = system: UO-31
K562 = system: K562
HCC 2998 = system: HCC 2998
A498 = system: A498
M19-MEL = system: M19-MEL
OVCAR-4 = system: OVCAR-4
A549 = system: A549
CAKI-1 = system: CAKI-1
NCI-H522 = system: NCI-H522
HCT-15 = system: HCT-15
HOP-92 = system: HOP-92
SF-295 = system: SF-295
XF498 = system: XF498
U-251 = system: U-251
SF-268 = system: SF-268
DMS-273 = system: DMS-273
LOX IMVI = system: LOX IMVI
786-0 = system: 786-0
SK-MEL-28 = system: SK-MEL-28
RXF 393 = system: RXF 393
SK-MEL-2 = system: SK-MEL-2
TK-10 = system: TK-10
COLO 205 = system: COLO 205
RPMI-8226 = system: RPMI-8226
HOP-62 = system: HOP-62
LXFL 529 = system: LXFL 529
OVCAR-5 = system: OVCAR-5
NCI-H226 = system: NCI-H226
MOLT-4 = system: MOLT-4
HL-60 = system: HL-60
HT-29 = system: HT-29
DMS-114 = system: DMS-114
Malme-3M = system: Malme-3M
UACC-62 = system: UACC-62
ACHN = system: ACHN
OVCAR-3 = system: OVCAR-3
SR = system: SR
SNB-19 = system: SNB-19
OVCAR-8 = system: OVCAR-8
CCRF-CEM = system: CCRF-CEM
NCI-H460 = system: NCI-H460
IGROV-1 = system: IGROV-1
HOP-18 = system: HOP-18
SK-OV-3 = system: SK-OV-3
KM-20L2 = system: KM-20L2
SNB-78 = system: SNB-78
SNB-75 = system: SNB-75
SN12C = system: SN12C
KM12 = system: KM12
EKVX = system: EKVX
HCT-116 = system: HCT-116

Measured: GI50

CCOC(=O)C[C@@H](C)[C@]1(C(=O)OC)CCCC1=O
inactive: M14 > 100 µM | SF-539 > 100 µM | SK-MEL-5 > 100 µM | UACC-257 > 100 µM | NCI-H23 > 71.9 µM | SW-620 > 100 µM | DLD-1 > 47.2 µM | UO-31 > 100 µM | K562 > 100 µM | HCC 2998 > 100 µM | A498 > 100 µM | M19-MEL > 100 µM | OVCAR-4 > 100 µM | A549 > 100 µM | CAKI-1 > 100 µM | NCI-H522 > 100 µM | HOP-92 > 100 µM | SF-295 > 100 µM | XF498 > 100 µM | U-251 > 100 µM | SF-268 > 90.8 µM | DMS-273 > 70.6 µM | LOX IMVI > 47.1 µM | 786-0 > 70.6 µM | SK-MEL-28 > 100 µM | RXF 393 > 100 µM | SK-MEL-2 > 100 µM | TK-10 > 100 µM | COLO 205 > 51.8 µM | RPMI-8226 > 49.3 µM | HOP-62 > 100 µM | LXFL 529 > 100 µM | OVCAR-5 > 100 µM | NCI-H226 > 100 µM | MOLT-4 > 100 µM | HL-60 > 100 µM | HT-29 > 65.8 µM | DMS-114 > 44.4 µM | Malme-3M > 100 µM | UACC-62 > 100 µM | ACHN > 100 µM | OVCAR-3 > 100 µM | SR 27.9 µM | SNB-19 > 100 µM | OVCAR-8 > 100 µM | CCRF-CEM 44.6 µM | NCI-H460 > 67 µM | IGROV-1 > 100 µM | HOP-18 > 100 µM | SK-OV-3 > 100 µM | KM-20L2 > 59.2 µM | SNB-78 > 100 µM | SNB-75 > 100 µM | SN12C > 100 µM | KM12 > 100 µM | EKVX > 100 µM | HCT-116 > 41.1 µM
> 100 µM: HCT-15

CC1=CC2CCC1(C)C/C2=C(/C)OC=O (centres undefined)
> 100 µM: HCT-15
inactive: M14 > 100 µM | SF-539 > 100 µM | SK-MEL-5 > 100 µM | UACC-257 > 100 µM | NCI-H23 > 100 µM | SW-620 > 100 µM | DLD-1 > 100 µM | UO-31 > 100 µM | K562 > 100 µM | M19-MEL > 100 µM | OVCAR-4 > 100 µM | A549 > 100 µM | CAKI-1 > 100 µM | NCI-H522 > 100 µM | HOP-92 > 100 µM | SF-295 > 100 µM | XF498 > 100 µM | U-251 > 100 µM | SF-268 > 100 µM | DMS-273 > 100 µM | LOX IMVI > 100 µM | 786-0 > 100 µM | SK-MEL-28 > 100 µM | RXF 393 > 100 µM | SK-MEL-2 > 100 µM | TK-10 > 100 µM | COLO 205 > 100 µM | RPMI-8226 > 100 µM | HOP-62 > 100 µM | LXFL 529 > 100 µM | OVCAR-5 > 100 µM | NCI-H226 > 100 µM | MOLT-4 > 100 µM | HL-60 > 100 µM | HT-29 > 100 µM | DMS-114 > 100 µM | UACC-62 > 100 µM | ACHN > 100 µM | OVCAR-3 > 100 µM | SR > 100 µM | SNB-19 > 100 µM | OVCAR-8 > 100 µM | CCRF-CEM > 100 µM | NCI-H460 > 100 µM | IGROV-1 > 100 µM | HOP-18 > 100 µM | SK-OV-3 > 100 µM | KM-20L2 > 100 µM | SNB-78 > 100 µM | SNB-75 > 100 µM | SN12C > 100 µM | KM12 > 100 µM | EKVX > 100 µM | HCT-116 > 100 µM

CCS[C@H]1NC(=O)C1[C@H](C)O[Si](C)(C)C(C)(C)C (some centres undefined)
> 100 µM: HCT-15
inactive: SF-539 > 100 µM | UACC-257 48 µM | NCI-H23 > 100 µM | SW-620 > 100 µM | DLD-1 > 100 µM | K562 34.3 µM | A498 > 100 µM | M19-MEL > 100 µM | OVCAR-4 > 100 µM | A549 81.3 µM | CAKI-1 74 µM | HOP-92 79.8 µM | SF-295 > 100 µM | XF498 > 100 µM | U-251 > 100 µM | SF-268 > 100 µM | DMS-273 97.7 µM | LOX IMVI 32.2 µM | 786-0 > 100 µM | SK-MEL-28 > 100 µM | RXF 393 52.8 µM | SK-MEL-2 > 100 µM | TK-10 > 100 µM | COLO 205 > 100 µM | RPMI-8226 31.6 µM | HOP-62 > 100 µM | OVCAR-5 75.5 µM | HT-29 > 100 µM | DMS-114 84.3 µM | Malme-3M > 100 µM | UACC-62 > 100 µM | ACHN > 100 µM | OVCAR-3 > 100 µM | SNB-19 > 100 µM | OVCAR-8 > 100 µM | NCI-H460 > 100 µM | IGROV-1 > 100 µM | HOP-18 > 100 µM | KM-20L2 > 100 µM | SNB-78 > 100 µM | SNB-75 > 100 µM | SN12C > 100 µM | KM12 > 100 µM | EKVX > 100 µM | HCT-116 86.1 µM
